Source: patent publication US11407748B2, “Substituted pyrido[1,2-a]pyrimidines and pyrazino[1,2-a]pyrimidines for enhancing AMPA receptor function” (Takeda Pharmaceutical Company Limited, priority 2017, dated 2022)

target: T1, hGluR1 flip (Homo sapiens, UniProt P42261); test: AMPA receptor function-enhancing activity using calcium influx as index; format: cell-based; details: test compound 30 μM with 3 mM glutamic acid; CHO-K1/GluR1 flip/stargazin-expressing cells; 100% = 3 mM glutamic acid + 300 μM cyclothiazide, 0% = 3 mM glutamic acid alone
T1 construct: expressed in transfected cells; host or cells: CHO-K1
T1 sequence (P42261 19-906 isoform P42261-2 limits assumed): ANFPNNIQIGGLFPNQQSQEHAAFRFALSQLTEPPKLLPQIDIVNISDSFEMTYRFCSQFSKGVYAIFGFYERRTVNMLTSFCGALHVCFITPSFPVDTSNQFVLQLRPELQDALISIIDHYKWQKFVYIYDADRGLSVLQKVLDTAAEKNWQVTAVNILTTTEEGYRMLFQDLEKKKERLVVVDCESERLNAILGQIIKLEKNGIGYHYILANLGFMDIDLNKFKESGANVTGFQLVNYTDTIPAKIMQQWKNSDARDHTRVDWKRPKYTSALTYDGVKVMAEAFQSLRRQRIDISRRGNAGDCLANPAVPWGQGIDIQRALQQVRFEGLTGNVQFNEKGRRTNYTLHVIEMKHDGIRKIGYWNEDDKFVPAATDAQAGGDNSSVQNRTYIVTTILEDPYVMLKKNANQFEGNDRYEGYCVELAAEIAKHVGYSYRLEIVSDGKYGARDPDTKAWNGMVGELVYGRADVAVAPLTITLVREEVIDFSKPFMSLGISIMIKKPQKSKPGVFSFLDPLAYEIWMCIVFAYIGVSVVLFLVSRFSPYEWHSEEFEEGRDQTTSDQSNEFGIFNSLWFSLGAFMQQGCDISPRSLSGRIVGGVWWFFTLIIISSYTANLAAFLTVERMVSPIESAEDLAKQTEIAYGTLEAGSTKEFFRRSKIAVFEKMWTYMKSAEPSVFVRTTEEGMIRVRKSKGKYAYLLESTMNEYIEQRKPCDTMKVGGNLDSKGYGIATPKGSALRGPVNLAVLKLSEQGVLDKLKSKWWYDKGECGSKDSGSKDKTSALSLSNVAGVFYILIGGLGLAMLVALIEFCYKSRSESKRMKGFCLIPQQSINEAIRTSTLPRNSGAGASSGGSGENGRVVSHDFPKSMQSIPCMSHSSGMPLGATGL
T1 sequence (Q9Y698 whole entry partner): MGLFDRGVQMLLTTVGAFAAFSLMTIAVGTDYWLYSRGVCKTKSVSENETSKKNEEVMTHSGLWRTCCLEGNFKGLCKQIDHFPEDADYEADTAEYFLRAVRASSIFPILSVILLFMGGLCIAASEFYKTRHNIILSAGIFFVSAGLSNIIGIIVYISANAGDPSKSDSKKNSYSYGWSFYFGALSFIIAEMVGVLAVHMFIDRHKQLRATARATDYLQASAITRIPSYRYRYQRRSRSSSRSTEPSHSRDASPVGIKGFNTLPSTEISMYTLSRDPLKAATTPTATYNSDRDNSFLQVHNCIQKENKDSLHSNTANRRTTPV
Description: Experimental Example 1 Measurement Method of AMPA Receptor Function-Enhancing Activity of Compound Using Calcium Influx as Index
(1) Construction of Expression Gene
Human GluR^1 flip cDNA was amplified by PCR method using forward primer […] (SEQ ID NO: 1) and reverse primer […] (SEQ ID NO: 2) artificially synthesized using human brain-derived cDNA (BD Bioscience) as a template. The amplified product was digested with restriction enzymes EcoRI, NotI (TAKARA SHUZO CO. LTD.) and incorporated into the same site of pcDNA3.1 (+) (Invitrogen) to construct pcDNA3.1(+)/human GluR1 flip gene. Human stargazin cDNA was amplified by PCR method using forward primer […] (SEQ ID NO: 3) and reverse primer […] (SEQ ID NO: 4) artificially synthesized using human hippocampus cDNA as a template. The amplified product was digested with restriction enzymes XhoI, BamHI (TAKARA SHUZO CO. LTD.) and incorporated into the same site of pcDNA3.1(−) (Invitrogen) to construct pcDNA3.1 Zeo(−)/human stargazing gene.
(2) Construction of GluR1 Flip/Stargazin Expressing Cell
CHO-K1 cells passaged in a culture medium (Ham's F12 medium (Invitrogen) added with 10% inactivated fetal bovine serum (Morgate) and penicillin, streptomycin (Invitrogen)) were detached using 0.05% trypsin and 0.53 mM EDTA (Invitrogen) diluted with D-PBS(−). The detached cells were suspended in a culture medium, and recovered by centrifugation at 1,000 rpm. The recovered cells were re-suspended in D-PBS(−) and added into 0.4 cm electroporation cuvette (BioRad). pcDNA3.1(+)/human GluR1 flip gene (5 μg) and pcDNA3.1 Zeo(−)/human stargazin gene (15 μg) were added, and introduced into CHO-K1 cells under the conditions of 950 μFd, […] and using Gene Pulser II (BioRad). The introduced cells were cultured overnight in a culture medium. The next day, using a selection medium (culture medium added with zeocin (Invitrogen) at 250 μg/mL), the cells were plated in a 96 well plate at 250 cells/well. The clones showing drug resistance were selected, and GluR1 flip/stargazin expression clones were selected by an assay method shown below using calcium influx as an index.
(3) Measurement Method of AMPA Receptor Function-Enhancing Activity of Compound, Using Calcium Influx as an Index
CHO-K1/GluR1 flip/stargazin-expressing cells were plated on a 384 well black bottom transparent plate, and cultured for 2 days in a CO2 incubator (SANYO ELECTRIC Co. Ltd.) at 37° C. The medium of the cell plate was removed. A calcium indicator (Calcium5 Assay Kit, Molecular Devices) was diluted with an assay buffer (HESS (Thermo Fisher Scientific), 0.1% BSA (Merck Millipoer) and 10 mM HEPES (Thermo Fisher Scientific)), and 1.25 mM probenecid (Dojindo Laboratories) was added thereto. The mixture prepared above was added at 30 μL/well (100 μL/well in case of 96 wells) to the well, and the well was left standing in 37° C., CO2 incubator for 1 hr. The cell plate was set in CellLux (PerkinElmer), a mixture (15 μL) (50 μL/well in case of 96 wells) of 9 mM glutamic acid (final concentration 3 mM) diluted with an assay buffer and a test compound (test compound concentration 30 μM) was added thereto, and variation in the amount of fluorescence was measured for 3 min. The variation of fluorescence level of a well added with final concentration 3 mM of glutamic acid and 300 μM cyclothiazide (TOCRIS) was defined as 100%, the variation of fluorescence level of a well added with final concentration 3 mM of glutamic acid alone was defined as 0%, and the activity of the compound was calculated by the following formula. activity (%)=(X−C)/(T−C)×100 • T: variation of fluorescence level of well added with final concentration 3 mM of glutamic acid and 300 μM cyclothiazide • C: variation of fluorescence level of well added with final concentration 3 mM of glutamic acid alone • X: variation of fluorescence level of well added with test compound

Row | SMILES | activation at 30 µM | hGluR1 flip/30 μM (%)
1 | Cc1c(C(F)(F)F)nc2c(-c3ccc(C(=O)N[C@H]4CCCOC4)cc3)cccn2c1=O [Example 93, 4-(3-methyl-4-oxo-2-(trifluoromethyl)-4H-pyrido[1,2-a]pyrimidin-9-yl)-N-((3S)-tetrahydro-2H-pyran-3-yl)benzamide] | 88.2% | 
2 | O=C(NCC(F)F)c1ccc(-c2cccn3c(=O)cc(C(F)(F)F)nc23)cc1F [Example 42] | 83.6% | 
3 | Cc1c(C(F)(F)F)nc2c(-c3ccc(C(=O)N4CCOC(C(F)F)C4)cc3)cccn2c1=O (stereo not drawn) [Example 106, 9-(4-((2-(difluoromethyl)morpholin-4-yl)carbonyl)phenyl)-3-methyl-2-(trifluoromethyl)-4H-pyrido[1,2-a]pyrimidin-4-one] |  | 85.9%
4 | CC1(O)CCN(C(=O)c2ccc(-c3cccn4c(=O)cc(C(F)(F)F)nc34)cc2)C1 (stereo not drawn) [Example 28, 9-(4-((3-hydroxy-3-methylpyrrolidin-1-yl)carbonyl)phenyl)-2-(trifluoromethyl)-4H-pyrido[1,2-a]pyrimidin-4-one] | 79.3% | 
5 | O=C(N[C@H]1CCCOC1)c1ccc(-c2cccn3c(=O)c(Br)c(C(F)(F)F)nc23)cc1F [Example 110, 4-(3-bromo-4-oxo-2-(trifluoromethyl)-4H-pyrido[1,2-a]pyrimidin-9-yl)-2-fluoro-N-((3S)-tetrahydro-2H-pyran-3-yl)benzamide] | 86.8% | 
6 | N#CC1CCCN(C(=O)c2ccc(-c3cccn4c(=O)c(Cl)c(C(F)(F)F)nc34)cc2)C1 (stereo not drawn) [Example 38, 1-(4-(3-chloro-4-oxo-2-(trifluoromethyl)-4H-pyrido[1,2-a]pyrimidin-9-yl)benzoyl)piperidine-3-carbonitrile] | 99.3% | 
7 | O=C(N[C@H]1CCCOC1)c1ccc(-c2cccn3c(=O)cc(C(F)(F)F)nc23)cc1 [Example 122, 4-(4-oxo-2-(trifluoromethyl)-4H-pyrido[1,2-a]pyrimidin-9-yl)-N-((3S)-tetrahydro-2H-pyran-3-yl)benzamide] | 71.4% | 
8 | O=C(c1ccc(-c2cccn3c(=O)c(Br)c(C(F)(F)F)nc23)cc1)N1CCOC2CC21 (stereo not drawn) [Example 127, 3-bromo-9-(4-(2-oxa-5-azabicyclo[4.1.0]hept-5-ylcarbonyl)phenyl)-2-(trifluoromethyl)-4H-pyrido[1,2-a]pyrimidin-4-one] | 74.7% | 
9 | O=C(c1ccc(-c2cccn3c(=O)cc(C(F)(F)F)nc23)cc1)N1CCC(O)(C(F)(F)F)C1 (stereo not drawn) [Example 16, 9-(4-((3-hydroxy-3-(trifluoromethyl)pyrrolidin-1-yl)carbonyl)phenyl)-2-(trifluoromethyl)-4H-pyrido[1,2-a]pyrimidin-4-one] |  | 88.3%
10 | CN(C(=O)c1ccc(-c2cccn3c(=O)c(Br)c(C(F)(F)F)nc23)cc1F)C1CCOCC1 [Example 84, 4-(3-bromo-4-oxo-2-(trifluoromethyl)-4H-pyrido[1,2-a]pyrimidin-9-yl)-2-fluoro-N-methyl-N-(tetrahydro-2H-pyran-4-yl)benzamide] | 102% | 
11 | O=C(c1ccc(-c2cccn3c(=O)c(Br)c(C(F)(F)F)nc23)cc1)N1CCC1 [Example 61, 9-(4-(azetidin-1-ylcarbonyl)phenyl)-3-bromo-2-(trifluoromethyl)-4H-pyrido[1,2-a]pyrimidin-4-one] | 77.1% | 
12 | O=C(c1ccc(-c2cccn3c(=O)cc(C(F)(F)F)nc23)cc1F)N1CCOCC1 [Example 44, 9-(3-fluoro-4-(morpholin-4-ylcarbonyl)phenyl)-2-(trifluoromethyl)-4H-pyrido[1,2-a]pyrimidin-4-one] | 73.8% | 
13 | O=C(c1ccc(-c2cccn3c(=O)c(Br)c(C(F)(F)F)nc23)cc1)N1CCOC(C(F)F)C1 (stereo not drawn) [Example 113, 3-bromo-9-(4-((2-(difluoromethyl)morpholin-4-yl)carbonyl)phenyl)-2-(trifluoromethyl)-4H-pyrido[1,2-a]pyrimidin-4-one] |  | 78.7%
14 | O=C(N[C@@H]1CCCOC1)c1ccc(-c2cccn3c(=O)c(Br)c(C(F)(F)F)nc23)cc1F [Example 111, 4-(3-bromo-4-oxo-2-(trifluoromethyl)-4H-pyrido[1,2-a]pyrimidin-9-yl)-2-fluoro-N-((3R)-tetrahydro-2H-pyran-3-yl)benzamide] | 91% | 
15 | CCN(CCC#N)C(=O)c1ccc(-c2cccn3c(=O)c(Br)c(C(F)(F)F)nc23)cc1 [Example 25, 4-(3-bromo-4-oxo-2-(trifluoromethyl)-4H-pyrido[1,2-a]pyrimidin-9-yl)-N-(2-cyanoethyl)-N-ethylbenzamide] | 91% | 
16 | CN(CCC#N)C(=O)c1ccc(-c2cccn3c(=O)c(Br)c(C(F)(F)F)nc23)cc1 [Example 99, 4-(3-bromo-4-oxo-2-(trifluoromethyl)-4H-pyrido[1,2-a]pyrimidin-9-yl)-N-(2-cyanoethyl)-N-methylbenzamide] | 76.9% | 

Next, values leading:

Row | activation at 30 µM | hGluR1 flip/30 μM (%) | SMILES
17 | 80.4% |  | Cc1c(C(F)(F)F)nc2c(-c3ccc(C(=O)N4CC(F)(F)C4)c(F)c3)cccn2c1=O [Example 129, 9-(4-((3,3-difluoroazetidin-1-yl)carbonyl)-3-fluorophenyl)-3-methyl-2-(trifluoromethyl)-4H-pyrido[1,2-a]pyrimidin-4-one]
18 | 76.4% |  | COCCNC(=O)c1ccc(-c2cccn3c(=O)c(Br)c(C(F)(F)F)nc23)cc1F [Example 72, 4-(3-bromo-4-oxo-2-(trifluoromethyl)-4H-pyrido[1,2-a]pyrimidin-9-yl)-2-fluoro-N-(2-methoxyethyl)benzamide]
19 | 72.3% |  | O=C(c1ccc(-c2cccn3c(=O)c(Br)c(C(F)(F)F)nc23)cc1F)N1CCOC(F)(F)C1 [Example 71, 3-bromo-9-(4-((2,2-difluoromorpholin-4-yl)carbonyl)-3-f1uorophenyl)-2-(trifluoromethyl)-4H-pyrido[1,2-a]pyrimidin-4-one]
20 | 83.2% |  | CCN(C(=O)c1ccc(-c2cccn3c(=O)c(Br)c(C(F)(F)F)nc23)cc1F)C1CC1 [Example 95, 4-(3-bromo-4-oxo-2 (trifluoromethyl)-4H-pyrido[1,2 a]pyrimidin-9-yl)-N-cyclopropyl-N-ethyl-2-fluorobenzamide]
21 | 82.6% |  | Cc1c(C(F)(F)F)nc2c(-c3ccc(C(=O)N4CCOCC4)c(F)c3)cccn2c1=O [Example 45, 9-(3-fluoro-4-(morpholin-4-ylcarbonyl)phenyl)-3-methyl-2-(trifluoromethyl)-4H-pyrido[1,2-a]pyrimidin-4-one]
22 | 97.2% |  | CN(CC1CC1)C(=O)c1ccc(-c2cccn3c(=O)c(Br)c(C(F)(F)F)nc23)cc1F [Example 96, 4-(3-bromo-4-oxo-2-(trifluoromethyl)-4H-pyrido[1,2-a]pyrimidin-9-yl)-N-(cyclopropylmethyl)-2-fluoro-N-methylbenzamide]
23 | 79.6% |  | O=C(c1ccc(-c2cccn3c(=O)c(Br)c(C(F)(F)F)nc23)cc1F)N1CCc2cccnc21 [Example 79, 3-bromo-9-(4-(2,3-dihydro-1H-pyrrolo[2,3-b]pyridin-1-ylcarbonyl)-3-fluorophenyl)-2-(trifluoromethyl)-4H-pyrido[1,2-a]pyrimidin-4-one]
24 | 103% |  | Cc1c(C(F)(F)F)nc2c(-c3ccc(C(=O)N(C)C4CCOCC4)c(F)c3)cccn2c1=O [Example 83, 2-fluoro-N-methyl-4-(3-methyl-4-oxo-2-(trifluoromethyl)-4H-pyrido[1,2-a]pyrimidin-9-yl)-N-(tetrahydro-2H-pyran-4-yl)benzamide]
